Read-outs that look alike come from different tables or passages of the source.
Key:
[1] = tested on: panel of 55 breast cancer cell lines; assay: Cell growth inhibition assay (Cell Titer Glo, 72 h, 9 doses; GI50, TGI, LC50); format: cell-based, human; conditions: Homo sapiens, read-out: GI50 (converted)
[2] = tested on: luminal, basal, claudin-low and ERBB2AMP breast cancer cell lines; assay: Associations of clinically relevant subtypes and response (non-parametric ANOVA or t-test on GI50 ranks); format: cell-based, human; conditions: Table 6; most sensitive subtype, FDR p<0.20
Method in brief: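 Significance was set at FDR p<0.20 after combining p-values across three test sets. Subtype–response associations came from rank-based non-parametric ANOVA or t-tests on GI50. For three-class comparisons, post-hoc tests of each group against the rest identified the most sensitive group, with FDR correction.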

SMILES: C#Cc1cccc(Nc2ncnc3cc(OCCOC)c(OCCOC)cc23)c1 [Erlotinib]
- GI50 ([1]; AU565, AU565 cell line, censored GI50 values): 13.2 µM
- GI50 ([1]; AU565, cell line AU565): 13.2 µM
- GI50 ([1]; BT-20, BT20 cell line, censored GI50 values): 2 µM
- GI50 ([1]; BT-20, cell line BT20): 2 µM
- GI50 ([1]; BT-474, BT474 cell line, censored GI50 values): 10.5 µM
- GI50 ([1]; BT-474, cell line BT474): 10.5 µM
- GI50 ([1]; BT-483, cell line BT483): 66.1 µM
- GI50 ([1]; BT-549, BT549 cell line, censored GI50 values): 41.7 µM
- GI50 ([1]; BT-549, cell line BT549): 41.7 µM
- GI50 ([1]; CAMA-1, cell line CAMA1): 66.1 µM
- GI50 ([1]; HCC38, cell line HCC38): 66.1 µM
- GI50 ([1]; HCC70, HCC70 cell line, censored GI50 values): 1.74 µM
- GI50 ([1]; HCC70, cell line HCC70): 1.74 µM
- GI50 ([1]; HCC202, HCC202 cell line, censored GI50 values): 37.2 µM
- GI50 ([1]; HCC202, cell line HCC202): 37.2 µM
- GI50 ([1]; HCC1143, cell line HCC1143): 57.5 µM
- GI50 ([1]; HCC1187, HCC1187 cell line, censored GI50 values): 7.59 µM
- GI50 ([1]; HCC1187, cell line HCC1187): 7.59 µM
- GI50 ([1]; HCC1395, HCC1395 cell line, censored GI50 values): 39.8 µM
- GI50 ([1]; HCC1395, cell line HCC1395): 39.8 µM
- GI50 ([1]; HCC1419, HCC1419 cell line, censored GI50 values): 10.7 µM
- GI50 ([1]; HCC1419, cell line HCC1419): 10.7 µM
- GI50 ([1]; HCC1428, HCC1428 cell line, censored GI50 values): 17.8 µM
- GI50 ([1]; HCC1428, cell line HCC1428): 17.8 µM
- GI50 ([1]; HCC1500, HCC1500 cell line, censored GI50 values): 6.46 µM
- GI50 ([1]; HCC1500, cell line HCC1500): 6.46 µM
- GI50 ([1]; HCC1806, HCC1806 cell line, censored GI50 values): 4.27 µM
- GI50 ([1]; HCC1806, cell line HCC1806): 4.27 µM
- GI50 ([1]; HCC1937, HCC1937 cell line, censored GI50 values): 38.9 µM
- GI50 ([1]; HCC1937, cell line HCC1937): 38.9 µM
- GI50 ([1]; HCC1954, HCC1954 cell line, censored GI50 values): 3.09 µM
- GI50 ([1]; HCC1954, cell line HCC1954): 3.09 µM
- GI50 ([1]; HCC2185 cell line, censored GI50 values): 23.4 µM
- GI50 ([1]; HCC3153 cell line, censored GI50 values): 31.6 µM
- GI50 ([1]; LY2 cell line, censored GI50 values): 33.1 µM
- GI50 ([1]; MCF7, cell line MCF7): 66.1 µM
- GI50 ([1]; MDA-MB-157, cell line MDAMB157): 50.1 µM
- GI50 ([1]; MDA-MB-175-VII, MDAMB175VII cell line, censored GI50 values): 3.09 µM
- GI50 ([1]; MDA-MB-231, MDAMB231 cell line, censored GI50 values): 39.8 µM
- GI50 ([1]; MDA-MB-231, cell line MDAMB231): 39.8 µM
- GI50 ([1]; MDA-MB-361, cell line MDAMB361): 64.6 µM
- GI50 ([1]; MDA-MB-436, cell line MDAMB436): 55 µM
- GI50 ([1]; MDA-MB-453, cell line MDAMB453): 44.7 µM
- GI50 ([1]; MDA-MB-468, MDAMB468 cell line, censored GI50 values): 21.4 µM
- GI50 ([1]; MDA-MB-468, cell line MDAMB468): 21.4 µM
- GI50 ([1]; SK-BR-3, SKBR3 cell line, censored GI50 values): 15.8 µM
- GI50 ([1]; SK-BR-3, cell line SKBR3): 15.8 µM
- GI50 ([1]; SUM52PE, SUM52PE cell line, censored GI50 values): 31.6 µM
- GI50 ([1]; SUM52PE, cell line SUM52PE): 31.6 µM
- GI50 ([1]; SUM149PT, SUM149PT cell line, censored GI50 values): 2 µM
- GI50 ([1]; SUM149PT, cell line SUM149PT): 2 µM
- GI50 ([1]; SUM185PE, cell line SUM185PE): 66.1 µM
- GI50 ([1]; SUM225CWN, SUM225CWN cell line, censored GI50 values): 7.08 µM
- GI50 ([1]; SUM225CWN, cell line SUM225CWN): 7.08 µM
- GI50 ([1]; SUM1315MO2, SUM1315MO2 cell line, censored GI50 values): 7.41 µM
- GI50 ([1]; SUM-159-PT, SUM159PT cell line, censored GI50 values): 11.7 µM
- GI50 ([1]; SUM-159-PT, cell line SUM159PT): 11.7 µM
- GI50 ([1]; T47D, cell line T47D): 50.1 µM
- GI50 ([1]; UACC-812, UACC812 cell line, censored GI50 values): 12.3 µM
- GI50 ([1]; UACC-812, cell line UACC812): 12.3 µM
- GI50 ([1]; UACC-893, UACC893 cell line, censored GI50 values): 12.3 µM
- GI50 ([1]; UACC-893, cell line UACC893): 12.3 µM
- GI50 ([1]; ZR-75-1, cell line ZR751): 66.1 µM
- GI50 ([1]; ZR-75B, cell line ZR75B): 66.1 µM
- GI50 ([1]; cell line 600MPE): 52.5 µM
- GI50 ([1]; cell line HCC2185): 23.4 µM
- GI50 ([1]; cell line HCC3153): 31.6 µM
- GI50 ([1]; cell line LY2): 33.1 µM
- GI50 ([1]; cell line MDAMB134V): 66.1 µM
- GI50 ([1]; cell line MDAMB175V): 3.09 µM
- GI50 ([1]; cell line SUM1315MO): 7.41 µM
- Subtype specificity [2]: Basal

Reference: patent publication US10770169B2, “Method of providing a treatment to a subject based on a dynamic pathway map” (THE REGENTS OF THE UNIVERSITY OF CALIFORNIA, priority 2010, dated 2020)
